Reference: patent US12454534B2, “Pyrrolo[2,3-b]pyrazines as HPK1 inhibitor and the use thereof” (BEIGENE, LTD., priority 2019, dated 2025)

Target: T1, HPK1 kinase (aa1-346, Life Technologies) (Homo sapiens, UniProt Q92918)
T1 construct: HPK1 kinase (aa1-346, Life Technologies); purchased Life Technologies
T1 sequence (Q92918 1-346): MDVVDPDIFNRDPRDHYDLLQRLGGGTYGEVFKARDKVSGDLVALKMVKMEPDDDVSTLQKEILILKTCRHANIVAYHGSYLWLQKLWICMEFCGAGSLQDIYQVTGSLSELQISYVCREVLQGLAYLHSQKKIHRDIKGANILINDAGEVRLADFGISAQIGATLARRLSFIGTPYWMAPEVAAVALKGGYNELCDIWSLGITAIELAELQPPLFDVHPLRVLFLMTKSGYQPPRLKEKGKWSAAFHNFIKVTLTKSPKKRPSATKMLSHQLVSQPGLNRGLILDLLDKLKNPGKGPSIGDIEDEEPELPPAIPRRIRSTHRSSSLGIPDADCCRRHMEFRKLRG
Assay: HPK1 Kinase Activity Assay at 1 mM ATP (TR-FRET)
Format: biochemical
Conditions: HPK1 40 nM, read-out: Enzymatic activity IC50
Protocol: HPK1 Kinase Activity Assay at 1 mM ATP
Compounds disclosed herein were tested for inhibition of HPK1 kinase (aa1-346, Life Technologies) activity in assays based on the time-resolved fluorescence-resonance energy transfer (TR-FRET) methodology. The assays were carried out in 384-well low volume black plates in a reaction mixture containing HPK1 kinase (40 nM), 1 mM ATP, 0.5 μM STK1 substrate and 0-10 μM compound in buffer containing 50 mM HEPES, 0.01% BSA, 0.1 mM Orthovanadate, 10 mM MgCl2, 1 mM DTT, pH=7.0, 0.005% Tween-20. The kinase was incubated with the compounds disclosed herein or DMSO for 60 minutes at room temperature and the reaction was initiated by the addition of ATP and STK1 substrate. After reaction at room temperature for 120 minutes, an equal volume of stop/detection solution was added according to the manufacturer's instruction (CisBio). The stop/detection solution contained STK Antibody-Cryptate and XL665-conjugated streptavidin in Detection Buffer. The TR-FRET signals (ratio of fluorescence emission at 665 nm over emission at 620 nm with excitation at 337 nm wavelength) were recorded on a PHERAstar FS plate reader (BMG Labtech). Phosphorylation of STK1 substrate led to the binding of STK Antibody-Cryptate to the biotinylated STK1 substrate, which places fluorescent donor (Eu^3+ cryptate) in close proximity to the accepter (Streptavidin-XL665), thus resulting in a high degree of fluorescence resonance energy transfer. The inhibition of HPK1 in presence of increasing concentrations of compounds was calculated based on the ratio of fluorescence at 665 nm to that at 620 nm. The IC50 for each compound was derived from fitting the data to the four-parameter logistic equation by Graphpad Prism software.

Structure (SMILES) | IC50 [nM]
Cc1cc(-c2c[nH]c3ncc(-c4cc(C)c5c(c4)CN(C)CC5)nc23)ccc1C(=O)N(C)C[C@@H](C)O [Example 4, (R)-4-(2-(2,5-dimethyl-1,2,3,4-tetrahydroisoquinolin-7-yl)-5H-pyrrolo[2,3-b]pyrazin-7-yl)-N-(2-hydroxypropyl)-N, 2-dimethylbenzamide] | 92
Cc1cc(-c2cnc3[nH]cc(-c4ccc(C(=O)N(C)C[C@H](C)O)cc4)c3n2)cc2c1CCN(C)C2 [Example 5, (S)-4-(2-(2,5-dimethyl-1,2,3,4-tetrahydroisoquinolin-7-yl)-5H-pyrrolo[2,3-b]pyrazin-7-yl)-N-(2-hydroxypropyl)-N-methylbenzamide] | 21
COc1cc(-c2cnc3[nH]cc(-c4cc(F)c(C(=O)N(C)C[C@@H]5CCOC5)c(F)c4)c3n2)cc2c1CN(C)CC2 [Example 7A, (S)-2,6-difluoro-4-(2-(8-methoxy-2-methyl-1,2,3,4-tetrahydroisoquinolin-6-yl)-5H-pyrrolo[2,3-b]pyrazin-7-yl)-N-methyl-N-((tetrahydrofuran-3-yl)methyl)benzamide] | 34
COc1cc(-c2cnc3[nH]cc(-c4cc(F)c(C(=O)N(C)C[C@H]5CCOC5)c(F)c4)c3n2)cc2c1CN(C)CC2 [Example 7B, (R)-2,6-difluoro-4-(2-(8-methoxy-2-methyl-1,2,3,4-tetrahydroisoquinolin-6-yl)-5H-pyrrolo[2,3-b]pyrazin-7-yl)-N-methyl-N-((tetrahydrofuran-3-yl)methyl)benzamide] | 31
Cc1cc(-c2cnc3[nH]cc(-c4ccc(C(=O)N(C)C[C@@H](C)O)cc4)c3n2)cc2c1CCN(C)C2 [Example 8, (R)-4-(2-(2,5-dimethyl-1,2,3,4-tetrahydroisoquinolin-7-yl)-5H-pyrrolo[2,3-b]pyrazin-7-yl)-N-(2-hydroxypropyl)-N-methylbenzamide] | 36
Cc1cc(-c2cnc3[nH]cc(-c4ccc(C(=O)N(C)C[C@@H](C)O)cc4)c3n2)cc2c1CCN(CCN1CCOCC1)C2 [Example 9, (R)—N-(2-hydroxypropyl)-N-methyl-4-(2-(5-methyl-2-(2-morpholinoethyl)-1,2,3,4-tetrahydroisoquinolin-7-yl)-5H-pyrrolo[2,3-b]pyrazin-7-yl)benzamide] | 62
Cc1cc(-c2c[nH]c3ncc(-c4cc(C)c5c(c4)CN(C)CC5)nc23)ccc1C(=O)N(C)C[C@H](C)O [Example 11, (S)-4-(2-(2,5-dimethyl-1,2,3,4-tetrahydroisoquinolin-7-yl)-5H-pyrrolo[2,3-b]pyrazin-7-yl)-N-(2-hydroxypropyl)-N, 2-dimethylbenzamide] | 74
COc1cc(-c2cnc3[nH]cc(-c4ccc(C(=O)N(C)C[C@H](C)O)c(C)c4)c3n2)cc2c1CCN(C)C2 [Example 12, (S)—N-(2-hydroxypropyl)-4-(2-(5-methoxy-2-methyl-1,2,3,4-tetrahydroisoquinolin-7-yl)-5H-pyrrolo[2,3-b]pyrazin-7-yl)-N, 2-dimethylbenzamide] | 52
Cc1cc(-c2cnc3[nH]cc(-c4ccc(C(=O)N(C)C[C@H](C)O)cc4)c3n2)cc2c1CCN(CCN1CCOCC1)C2 [Example 13, (S)—N-(2-hydroxypropyl)-N-methyl-4-(2-(5-methyl-2-(2-morpholinoethyl)-1,2,3,4-tetrahydroisoquinolin-7-yl)-5H-pyrrolo[2,3-b]pyrazin-7-yl)benzamide] | 45
CN[C@H]1CCN(C(=O)c2ccc(-c3c[nH]c4ncc(-c5cc(C)c6c(c5)CN(C)CC6)nc34)cc2)C1 [Example 14, (S)-(4-(2-(2,5-dimethyl-1,2,3,4-tetrahydroisoquinolin-7-yl)-5H-pyrrolo[2,3-b]pyrazin-7-yl)phenyl) (3-(methylamino)pyrrolidin-1-yl)methanone] | 12
Cc1cc(-c2c[nH]c3ncc(-c4cc(C)c5c(c4)CN(C)CC5)nc23)ccc1C(=O)N1CC(O)C1 [Example 17, (4-(2-(2,5-dimethyl-1,2,3,4-tetrahydroisoquinolin-7-yl)-5H-pyrrolo[2,3-b]pyrazin-7-yl)-2-methylphenyl) (3-hydroxyazetidine-1-yl)methanone] | 24
CN[C@H]1CCN(C(=O)c2ccc(-c3c[nH]c4ncc(-c5cc6c(c(OC)c5)CCN(C)C6)nc34)cc2)C1 [Example 18, (S)-(4-(2-(5-methoxy-2-methyl-1,2,3,4-tetrahydroisoquinolin-7-yl)-5H-pyrrolo[2,3-b]pyrazin-7-yl)phenyl) (3-(methylamino)pyrrolidin-1-yl)methanone] | 7
Cc1cc(-c2cnc3[nH]cc(-c4ccc(C(=O)N5CC6(COC6)C5)cc4)c3n2)cc2c1CCN(C)C2 [Example 19, (4-(2-(2,5-dimethyl-1,2,3,4-tetrahydroisoquinolin-7-yl)-5H-pyrrolo[2,3-b]pyrazin-7-yl)phenyl) (2-oxa-6-azaspiro[3.3]heptan-6-yl)methanone] | 13
CC(=O)Nc1cc(-c2c[nH]c3ncc(-c4cc(C)c5c(c4)CN(C)CC5)nc23)ccc1C(=O)N(C)C [Example 21, 2-acetamido-4-(2-(2,5-dimethyl-1,2,3,4-tetrahydroisoquinolin-7-yl)-5H-pyrrolo[2,3-b]pyrazin-7-yl)-N, N-dimethylbenzamide] | 75
COc1cc(-c2cnc3[nH]cc(-c4ccc(C(=O)N(C)C)cc4)c3n2)cc2c1CN(C)CC2 [Example 22, 4-(2-(8-methoxy-2-methyl-1,2,3,4-tetrahydroisoquinolin-6-yl)-5H-pyrrolo[2,3-b]pyrazin-7-yl)-N, N-dimethylbenzamide] | 11
Cc1cc(-c2c[nH]c3ncc(-c4cc(C)c5c(c4)CN(CCC(=O)N[C@H]4CC[C@H](O)CC4)CC5)nc23)ccc1C(=O)N(C)C [Example 23, 4-(2-(2-(3-((trans-4-hydroxycyclohexyl)amino)-3-oxopropyl)-5-methyl-1,2,3,4-tetrahydroisoquinolin-7-yl)-5H-pyrrolo[2,3-b]pyrazin-7-yl)-N, N, 2-trimethylbenzamide] | 122
Cc1cc(-c2c[nH]c3ncc(-c4cc(C)c5c(c4)CN(CCC(=O)N4CCN(C)CC4)CC5)nc23)ccc1C(=O)N(C)C [Example 24, N, N, 2-trimethyl-4-(2-(5-methyl-2-(3-(4-methylpiperazin-1-yl)-3-oxopropyl)-1,2,3,4-tetrahydroisoquinolin-7-yl)-5H-pyrrolo[2,3-b]pyrazin-7-yl)benzamide] | 75
CNC(=O)CCN1CCc2c(C)cc(-c3cnc4[nH]cc(-c5ccc(C(=O)N(C)C)c(C)c5)c4n3)cc2C1 [Example 25, N, N, 2-trimethyl-4-(2-(5-methyl-2-(3-(methylamino)-3-oxopropyl)-1,2,3,4-tetrahydroisoquinolin-7-yl)-5H-pyrrolo[2,3-b]pyrazin-7-yl)benzamide] | 49
Cc1cc(-c2c[nH]c3ncc(-c4cc(C)c5c(c4)CN(CCC(=O)N(C)C)CC5)nc23)ccc1C(=O)N(C)C [Example 26, 4-(2-(2-(3-(dimethylamino)-3-oxopropyl)-5-methyl-1,2,3,4-tetrahydroisoquinolin-7-yl)-5H-pyrrolo[2,3-b]pyrazin-7-yl)-N, N, 2-trimethylbenzamide] | 63
COc1ccc(NC(=O)CCN2CCc3c(C)cc(-c4cnc5[nH]cc(-c6ccc(C(=O)N(C)C)c(C)c6)c5n4)cc3C2)cc1 [Example 27, 4-(2-(2-(3-(4-methoxyphenylamino)-3-oxopropyl)-5-methyl-1,2,3,4-tetrahydroisoquinolin-7-yl)-5H-pyrrolo[2,3-b]pyrazin-7-yl)-N, N, 2-trimethylbenzamide] | 26
Cc1cc(-c2c[nH]c3ncc(-c4cc(C)c5c(c4)CN(CCC(=O)NC4CCOCC4)CC5)nc23)ccc1C(=O)N(C)C [Example 28, N, N, 2-trimethyl-4-(2-(5-methyl-2-(3-oxo-3-(tetrahydro-2H-pyran-4-ylamino)propyl)-1,2,3,4-tetrahydroisoquinolin-7-yl)-5H-pyrrolo[2,3-b]pyrazin-7-yl)benzamide] | 67
Cc1cc(-c2c[nH]c3ncc(-c4cc(C)c5c(c4)CN(CCC(=O)NC[C@@H](C)O)CC5)nc23)ccc1C(=O)N(C)C [Example 29, (R)-4-(2-(2-(3-(2-hydroxypropylamino)-3-oxopropyl)-5-methyl-1,2,3,4-tetrahydroisoquinolin-7-yl)-5H-pyrrolo[2,3-b]pyrazin-7-yl)-N, N, 2-trimethylbenzamide] | 46
